Measured values as given in patent publication US8329681B2, “Methods and compositions for the efficient delivery of therapeutic agents to cells and animals” (University of Massachusetts, priority 2005, dated 2012).

Tests used:
[1] = test system: FL83B cells; test: Cell Titer 96 AQueous One Solution (MTS) cytotoxicity assay; type: cell-based, rat; conditions: liposomal formulation alone or in combination with DOPE and DOPC as co-lipid
Experimental: (§1) Alternatively, the cytotoxicity of the lipids was measured using the Cell Titer 96® AQueous One Solution Cell Proliferation Assay. The Cell Titer 96® AQueous One Solution Reagent contains a tetrazolium compound [3-(4,5-dimethylthiazol-2-yl)-5-(3-carboxymethoxyphenyl)-2(4-sulfophenyl)-2H-tetrazolium, inner salt; MTS^17] and an electron coupling reagent (phenazine ethosulfate; PES). The cytotoxicity assay was performed in 96 well plates by maintaining the ratio of number of cells to amount of cationic lipid constant as in transfection experiments. MTS was added 24 hours after transfection. Cell Titer 96® AQueous One Solution Reagent (20 ul) was pipetted into each well of the 96-well assay plate containing the samples in 100 μl of culture medium. In case of HeLa cells the plates were incubated for 2 hours, whereas for FL83B cells, plates were incubated for 4 hours at 37° C. in a humidified, 5% CO2 atmosphere. Absorbance was then recorded at 490 nm.
(§2) In a second experiment, FL83B and HeLa cells were plated on 96 well plate 18 hours prior to transfection. Then, liposome was added to each well and incubated for 24 hours. Thereafter, Cell Titer 96® AQueous One Solution Reagent was added and incubated for 4 hours. The MTS tetrazolium compound (Owen's reagent) is bioreduced by viable cells into a colored formazan product that is soluble in tissue culture […]. The absorbance of the formazan was measured at 490 nm with a 96 well plate reader.

[2] = test system: HeLa cells; test: as above; type: cell-based, human; conditions: liposomal formulation alone or in combination with DOPE and DOPC as co-lipid
Experimental: as §1, §2

[3] = test system: A549 cells; test: Transfection of pSV-β-gal plasmid, β-galactosidase reporter activity; type: cell-based, human
Experimental: (§3) Cationic lipids and the co-lipids in chloroform were dried under a stream of N2 gas and vacuum-desiccated for a minimum of 6 h to remove residual organic solvent. The dried lipid film was hydrated in sterile deionized water at cationic lipid concentration of 1 mM for a minimum of 12 h. Liposomes were vortexed to remove any adhering lipid film and probe sonicated until a clear translucent solution is formed. The pDNA solution was added to the liposomes, mixed properly by pipeting and shaken on a rotary shaker (15-30 mins.) before use.
(§4) Cells were seeded at a density of 20,000 (for HeLa cells), 16,000 (for A-549 cells), 8,000 (for FL83B cells) per well in a 96-well plate 18-24 h before transfection. An amount of 0.30 μg of pDNA was complexed with varying amounts of lipids (to give +/− ratios of 0.3:1, 1:1, 3:1 and 9:1) in plain OPTIMEM (total volume made up to 100 μl) and then shaken on a rotary shaker at room temperature for 20-30 minutes. The complexes were then added to the cells. After 5 h of incubation, 200 μl of complete medium containing 10% FBS in DMEM for HeLa and 10% FBS in F-12K for FL83B and A549 was added to the cells. The medium was changed after 24 h and the reporter gene activity was estimated 48 h after transfection. Cells were washed with PBS (100 μl) and lysed in […] lysis buffer (5× reporter lysis buffer diluted to 1×, working concentration). The β-galactosidase activity per well was estimated by adding 50 μl of 2× substrate solution (1.33 mg/ml of ONPG, 0.2 M sodium phosphate, pH 7.15 and 2 mM magnesium chloride) to the lysate in a 96-well plate. Absorbance of the product ortho-nitrophenol was measured at 420 nm. The absorbance values reported are the average values from two replicate experiments performed in the same plate on the same day. Each transfection experiment was performed three times on three different days to control for variations in transfection efficiency.
(§5) Briefly, the efficacy of various lipid formulations were tested in three cell lines A-549, FL83B and HeLa cells and the transfection efficiencies of the cationic liposomal formulations were compared with a commercially available transfection reagent (e.g., Lipofectamine 2000).

[4] = test system: HeLa cells; test: as above; type: cell-based, human
Experimental: as §3, §4, §5

[5] = test system: CDK9 expression; test: In vivo delivery of CDK9 siRNA with liposome by tail vein injection, CDK9 expression in spleen; design: species or system BALB/c mice; conditions: Cy3-labeled CDk9 siRNA (25 μg) and liposome (125 μg), repeated 4 and 8 h later, within the initial 24 h after treatment
Experimental: Total RNA was extracted from tissues or cultured cells using Trizol (Invitrogen, Carlsbad, Calif.), and real-time RT-PCR for CDK9 and GAPDH mRNA quantification was carried out using 200 ng of total RNA and the QuantiTect SYBR Green RT-PCR Kit (Qiagen, Valencia, Calif.) according to the manufacturer's instructions. The ratio of CDK9 and GAPDH mRNA was calculated and expressed as a group average relative to the control group. The specific probe for detection of CDK9 mRNA levels was designed to the following regions of the CDK9 mRNA ORF, the forward primer 5′ TCGGACCAA AGCCTCACCGTATAA 3′, the reverse primer 5′ […] TTG 3′
Male BALB/c mice, 6-8 weeks of age and weighting 20-22 g, were purchased form the Jackson Laboratory (Bar Harbor, Me.). Synthetic siRNA were delivered in vivo using following method. For each mice 25 μg of siRNA in 100 μl of HEPES Buffered Saline (20 mM HEPES, 150 mM NaCl, pH 7.4) was transferred into a sterile tube. In a separate sterile tube 125 μg of liposome was mixed with 200 μl HEPES Buffered Saline. The siRNA solution was transferred to the tube containing liposome solution and then incubated at room temperature for 20 minutes. 200 μl of the complexes was injected via the tail vein, using a 1-ml syringe and 27-gauge needle. The injection was repeated 4 and 8 h later. Control mice were injected with an equal volume of liposome. At 24 h after the last injection, the mice were sacrificed and tissues were harvested for further analysis. CDK9 expression level was normalized with GAPDH and then compared to those obtained from control animals and shown as percent expression. The data represent the mean value +/− SD of three to five mice in each group.
Briefly, the ability of the new synthesized liposome to deliver siRNA in mice was investigated. BALB/c mice were administrated with complexes of Cy3-labeled CDk9 siRNA (25 μg) and liposome (125 μg) via normal pressure tail vein injection. The injection was repeated 4 and 8 h later. Control mice were administrated with an equal amount of liposome. […]

[6] = test system: A-549, FL83B and HeLa cells; test: Transfection of pSV-β-gal plasmid, overall statement without cell line; type: cell-based; conditions: alone without any co-lipids
Experimental: as §4, with “efficiency. […]” for “efficiency.”

[7] = alone, lipid:DNA charge ratios 1:1 and 0.3:1
[8] = in combination with DOPE, charge ratio 3:1

For `CCCCCCCCC=CCCCCCCCC(=O)OC(COC(=O)CCC(=O)OC1CCC2(C)C(=CCC3C2CCC2(C)C(C(C)CCCC(C)C)CCC32)C1)C[N+](C)(C)C.[I-]` (stereo not shown) [Lipid 8, N,N,N-Trimethyl-N-[2-(9(Z)-octadecanoyloxy),3-succinyloxy(4-cholesteryloxy)-propyl]ammonium iodide], the “cytotoxicity as compared to a control” value [1] was “non-toxic”, the “cytotoxicity as compared to a control” value [2] was “non-toxic” and the “transfection efficiency compared with Lipofectamine 2000” value [3, 7] was “one fold less”. The “transfection efficiency, fold less than Lipofectamine 2000” value ([3]; in combination with DOPC) was “about 1 fold”, the “transfection efficiency compared with Lipofectamine 2000” value [3, 8] was “comparable” and the “transfection efficiency, fold less than Lipofectamine 2000” value [4, 7] was about 1.5 fold. The “transfection efficiency compared with Lipofectamine 2000” value ([4]; in combination with DOPC, charge ratio of 1.1) was “comparable”, the “transfection efficiency, fold less than Lipofectamine 2000” value [4, 8] was “more than 1.5 fold” and the “CDK9 expression level in the spleen decreased by” value [5] was 28%. For the same compound, the “transfection efficiency of lipid alone compared with lipid in combination with DOPE and DOPC” value [6] was “about as efficient”.
